Results published in patent US12421276B2 (priority 2016, dated 2025).
Blank lines part the entries; values can stand above or below the compound they belong to. Where a SMILES comes first, the peptide text is derived from it. [ ]: non-standard residue; d: D form. The star is where a group is joined. ξ: configuration not given here. ξpY = NC(Cc1ccc(OP(=O)(O)O)cc1)C(=O)O; Ile(3ξ) = CCC(C)[C@H](N)C(=O)O; Hexanoyl = CCCCCC(=O)*; Ahx = NCCCCCC(=O)O

Experiments:
[1] = Plasma stability study, rat plasma; type: in vitro ADME; details: rat, plasma
Description: (§1) Human and rat plasma (K2 EDTA) were obtained from Bioreclamation.
(§2) Compounds were dissolved as 0.3 mM DMSO stocks. Compounds were transferred to the plasma at 1 μM on a 96-well deep well plate. After mixing, samples were transferred to several 96-well plates (25 μL/well), and incubated at 37° C. The extent of metabolism was calculated as the disappearance of the test compound, compared to the 0-min control reaction incubations. Propantheline was included as a positive control to verify assay performance.
(§3) At each of the time points, 150 μL of quench solution (50% acetonitrile, 50% methanol with 0.05% formic acid) with internal standard (bucetin for positive ESI mode and warfarin for negative ESI mode) was transferred to each well. Plates were sealed and centrifuged at 4° C. for 15 minutes at 4000 rpm. The supernatant was transferred to fresh plates for LC/MS/MS analysis.
(§4) Elution conditions are detailed in the table below.
(§5) Initial rates of the clearance of test compounds were calculated using linear regression of semi-log plot of % remaining of compounds versus time. The elimination rate constant (equals to −slope) of the linear regression was then used to determine t½ values.

[2] = Plasma stability study, human plasma; type: in vitro ADME; details: human, plasma
Description: as §1, §2, §3, §4, §5

Caco-2 cells = assay: Caco-2 permeability study with or without P-gp inhibitor GF120918; details: for Abs. Quotient: (Papp A-B with inhibitor − without inhibitor)/Papp A-B with inhibitor; for Caco-2 Cells Permeability Recovery Rate: 1 hr, pH 7.4
Description: Buffer=HBSS, pH 7.4 with 5 mM HEPES
Caco-2 cell plates were obtained commercially and were maintained for 21 days at 37° C. with 5% CO2. Cells were washed with Hank's Balanced Salt Solution (HBSS) 30 min before starting the experiment. Test compound solutions were prepared by diluting from DMSO stock into HBSS buffer in the presence or absence of 10 μM of P-gp inhibitor GF120918. The final DMSO concentration is 0.2%. Prior to each experiment, cell monolayer integrity was verified by transendothelial electrical resistance (TEER). Transport experiment was initiated by adding test compounds to the apical (75 μL) side. Transport plates were incubated at 37° C. in a humidified incubator with 5% CO2. Samples were taken from the donor and acceptor compartments after 1 hr and analyzed by liquid chromatography with tandem mass spectrometry (LC/MS/MS).
Apparent permeability (Papp) values were calculated using the following equation: Papp=(dQ/dt)/A/C0
where dQ/dt is the initial rate of amount of test compound transported across cell monolayer, A is the surface area of the filter membrane, and C0 is the initial concentration of the test compound. C0 is calculated for each condition using a 4-point calibration curve.
Absorption quotient between the two assay conditions was calculated by the following equation:
Absorption quotient (AQ)=(Papp, A-B with inhibitor−Papp, A-B without inhibitor)/Papp, A-B with inhibitor where Papp, A-B with inhibitor and Papp, A-B without inhibitor represent the apparent permeability of test compound from the apical to basal side of the cellular monolayer in the presence and absence of 10 μM P-gp inhibitor GF120918, respectively.
All samples were analyzed on LC/MS/MS using an AB Sciex API 4000 instrument, coupled to a Shimadzu LC-20AD LC Pump system. Analytical samples were separated using a Waters Atlantis T3 dC18 reverse phase HPLC column (10 mm×2.1 mm) at a flow rate of 0.5 mL/min. The mobile phase consisted of 0.1% formic acid in water (solvent A) and 0.1% formic acid in acetonitrile (solvent B).

[3] = type: in vivo, rat; details: Rat, PO, 10 mg/kg equiv., n = 4
Description: • 1. Eight (8) male JVC SD rats (purchased from Charles River Lab) were monitored daily for body condition and health status during the 3-5 days acclimation period. The rats were randomly assigned into […] (n=4). • 2. […] The dosed rats were individually placed into a metabolic cage, and have access to food and water at all times. The urine from each rat was collected daily from the metabolic cages, and kept in dry ice. • 4. At predose (0 min), 5 min, 15 min, 30 min, 1 hr, 2 hr, 8 hr, and 24 hr post dosing, approximately 200 ul blood samples were collected from each rat and transferred to EDTA tubes. • 5. The blood samples in EDTA vials were centrifuged at 4° C. and 6,000 rpm for 10 minutes to generate ˜100 μl of plasma per sample. Blood samples were processed as quickly as possible and remain no longer than 2 min at room temperature and no longer than 15 minutes at 4° C. prior to processing. • 6. All samples were transferred for bioanalytic assay using LCMS

[4] = Metabolic stability in simulated intestinal fluid (SIF), pH 6.8, with or without pancreatin; type: in vitro ADME; details: 5 μM, 37° C.
Description: (§6) Metabolic Stability in SIF and SGF (Simulated Intestinal and Gastric Fluid)
Buffer 3=SIF without enzyme
Buffer 4=SIF with 1% pancreatin
(§7) SIF was prepared freshly with 8.7 mM NaOH, 28.65 mM NaH2PO4, 105.85 mM NaCl, with a final pH of 6.8. SGF was prepared freshly with 34.2 mM NaCl, with a final pH of 1.2. Enzymes such as pepsin or pancreatin were added to some buffers. Human and rat plasma (K2 EDTA) were purchased from BioreclamationIVT.
(§8) Compounds were dissolved as 1.5 mM DMSO stocks. Compounds were transferred to SIF, SGF, or plasma at 5 μM on a 96-well deep well plate. After mixing, samples were transferred to several 96-well plates (25 μL/well), and incubated at 37° C. The extent of metabolism was calculated as the disappearance of the test compound, compared to the 0-min control reaction incubations. Candesartan Cilexetil and omeprazole were included as positive controls for SIF and SGF, respectively, to verify assay performance.
as §3, with “(100% acetonitrile” for “(50% acetonitrile, 50% methanol”, “0.1%” for “0.05%”
as §4, §5

[5] = Metabolic stability in simulated gastric fluid (SGF), pH 1.2, with or without pepsin; type: in vitro ADME; details: 5 μM, 37° C.
Description: as §6
Buffer 1=SGF without enzyme
Buffer 2=SGF with 0.32% pepsin
as §7, §8
as §3, with “(100% acetonitrile” for “(50% acetonitrile, 50% methanol”, “0.1%” for “0.05%”
as §4, §5

[6] = +GF120918 (10 μM), 10 μM compound
[7] = analyte: Parent (BASE STRUCTURE)

Plasma Stability Half-Life [1]: 8.2 min
Plasma Stability Half-Life [2]: 31.3 min
Abs. Quotient (Caco-2 cells): 0.78
Caco-2 Cells Permeability Recovery Rate (Caco-2 cells; [6]): 96%
Caco-2 Cells Permeability Recovery Rate (Caco-2 cells; −GF120918, 10 μM compound): 91%
Structure (SMILES): CCCCCC(=O)NC(Cc1ccc(OC(=O)CN2CCOCC2)cc1)C(=O)NC(C(=O)NCCCCCC(N)=O)C(C)CC (stereo not drawn) [Compound A23]

Plasma Stability Half-Life [1]: 64.2 min
Plasma Stability Half-Life [2]: 7.3 min
Abs. Quotient (Caco-2 cells): 0.88
Caco-2 Cells Permeability Recovery Rate (Caco-2 cells; [6]): 72%
Caco-2 Cells Permeability Recovery Rate (Caco-2 cells; −GF120918, 10 μM compound): 72%
Structure (SMILES): CCCCCC(=O)NC(Cc1ccc(OC(=O)CN2CCCC2)cc1)C(=O)NC(C(=O)NCCCCCC(N)=O)C(C)CC (stereo not drawn) [Compound A24]

Structure (SMILES): CCCCCC(=O)NC(Cc1ccc(OP(=O)(O)O)cc1)C(=O)N[C@H](C(=O)NCCCCCC(N)=O)C(C)CC.N.N (stereo partly drawn) [Compound A29] (Hexanoyl-[ξpY]-[Ile(3ξ)]-[Ahx]-NH2)
AUC0-24 [3, 7]: 35.9 ± 27.6 ng·h/mL
AUC0-inf [3, 7]: 48.6 ± 26.5 ng·h/mL
Cmax [3, 7]: 39.7 ± 74.2 ng/mL
Tmax (h) [3, 7]: 2.1 ± 4^ h
half-life [3, 7]: 942 ± 858 min
Tmax ([3]; analyte: Prodrug): 0 h
SIF Stability (pH 6.8) Half-Life (min) ([4]; +Pancreatin (1%)): Neg.
SIF Stability (pH 6.8) 0 min ([4]; +Pancreatin (1%)): 100%
SIF Stability (pH 6.8) 60 min ([4]; +Pancreatin (1%)): 94%
SIF Stability (pH 6.8) 120 min ([4]; +Pancreatin (1%)): 98%
SIF Stability (pH 6.8) 240 min ([4]; +Pancreatin (1%)): 104%
SIF Stability (pH 6.8) Half-Life (min) ([4]; −Pancreatin): Neg.
SIF Stability (pH 6.8) 0 min ([4]; −Pancreatin): 100%
SIF Stability (pH 6.8) 60 min ([4]; −Pancreatin): 96%
SIF Stability (pH 6.8) 120 min ([4]; −Pancreatin): 97%
SIF Stability (pH 6.8) 240 min ([4]; −Pancreatin): 103%
Abs. Quotient (Caco-2 cells): 0.83
Caco-2 Cells Permeability Recovery Rate (Caco-2 cells; [6]): 76%
Caco-2 Cells Permeability Recovery Rate (Caco-2 cells; −GF120918, 10 μM compound): 86%
SGF Stability (pH 1.2) Half-Life (min) ([5]; +Pepsin (0.32%)): 225.0 min
SGF Stability (pH 1.2) 0 min ([5]; +Pepsin (0.32%)): 100%
SGF Stability (pH 1.2) 60 min ([5]; +Pepsin (0.32%)): 86%
SGF Stability (pH 1.2) 120 min ([5]; +Pepsin (0.32%)): 63%
SGF Stability (pH 1.2) 240 min ([5]; +Pepsin (0.32%)): 49%
SGF Stability (pH 1.2) Half-Life (min) ([5]; −Pepsin): Neg.
SGF Stability (pH 1.2) 0 min ([5]; −Pepsin): 100%
SGF Stability (pH 1.2) 60 min ([5]; −Pepsin): 117%
SGF Stability (pH 1.2) 120 min ([5]; −Pepsin): 129%
SGF Stability (pH 1.2) 240 min ([5]; −Pepsin): 123%
